Reference: patent US9326515B2, “Fungicidal 3-[(1,3-thiazol-4-ylmethoxyimino)(phenyl)methyl]-2-substituted-1,2,4-oxadiazol-5(2H)-one derivatives” (BAYER INTELLECTUAL PROPERTY GMBH, priority 2011, dated 2016)

Columns and labels:
[1] = pH 2.7
Phytophthora infestans = format: in vivo; conditions: 100 ppm of active ingredient, spray on young tomato plants, inoculated one day after treatment, evaluated 7 days after inoculation
Plasmopara viticola = assay: Example I: in vivo preventive test on Plasmopara viticola (grapevines); conditions: 10 ppm of active ingredient, spray on young grapevine plants, inoculated after spray coating dried, evaluated 6 days after inoculation
Description: To produce a suitable preparation of active compound, 1 part by weight of active compound is mixed with the stated amounts of solvent and emulsifier, and the concentrate is diluted with water to the desired concentration.
To test for preventive activity, young plants are sprayed with the preparation of active compound at the stated rate of application. After the spray coating has dried on, the plants are inoculated with an aqueous spore suspension of Plasmopara viticola and then remain for 1 day in an incubation cabinet at approximately 20° C. and a relative atmospheric humidity of 100%. The plant is subsequently placed for 4 days in a greenhouse at approximately 21° C. and a relative atmospheric humidity of approximately 90%. The plants are then misted and placed for 1 day in an incubation cabinet.
The test is evaluated 6 days after the inoculation. 0% means an efficacy which corresponds to that of the untreated control, while an efficacy of 100% means that no disease is observed.

SMILES | LogP [1] | Eff. % (Phytophthora infestans) [%] | Eff. % (Plasmopara viticola) [%]
CC(C)C(C)OC(=O)Nc1nc(CO/N=C(/c2ccccc2)c2nc(=O)on2C)cs1 (racemic) [Example 46] | 3.35 | – | –
Cn1oc(=O)nc1C(=NOCc1csc(NC(=O)COc2ccccc2)n1)c1ccccc1 [Example 8] | 2.98 | 95 | 97
COc1cccc(C(=NOCc2csc(NC(=O)OCCc3ccccc3)n2)c2nc(=O)on2C)c1 [Example 85] | 3.39 | – | –
CC(C)CCOC(=O)Nc1nc(CO/N=C(/c2ccccc2)c2nc(=O)on2C)cs1 [Example 55] | 3.44 | – | –
C#CCCOC(=O)Nc1nc(CON=C(c2ccccc2)c2nc(=O)on2C)cs1 [Example 11] | 2.56 | 70 | 78
Cn1oc(=O)nc1C(=NOCc1csc(NC(=O)C2(C)CC2)n1)c1ccccc1 [Example 16] | 2.66 | 97 | 91
Cn1oc(=O)nc1C(=NOCc1csc(NC(=O)OCCCC2CC2)n1)c1ccccc1 [Example 79] | 3.51 | – | –
Cn1oc(=O)nc1/C(=N\OCc1csc(NC(=O)OCc2ccccc2)n1)c1ccccc1 [Example 96] | 3.17 | – | –
Cn1oc(=O)nc1/C(=N\OCc1csc(NC(=O)OCCC2CCCC2)n1)c1ccccc1 [Example 52] | 3.96 | – | –
Cc1cccc(C(=O)Nc2nc(CON=C(c3ccccc3)c3nc(=O)on3C)cs2)c1 [Example 68] | 3.19 | – | –
Cc1cccc2c1OC(C(=O)Nc1nc(CON=C(c3ccccc3)c3nc(=O)on3C)cs1)CO2 (centres unmarked) [Example 25] | 3.42 | 92 | 96
Cn1oc(=O)nc1C(=NOCc1csc(NC(=O)OCC2CC2)n1)c1ccccc1 [Example 88] | 2.84 | – | –
CC(OC(=O)Nc1nc(CO/N=C(/c2ccccc2)c2nc(=O)on2C)cs1)C1CCCCC1 (racemic) [Example 56] | 4.31 | – | –
Cn1oc(=O)nc1/C(=N\OCc1csc(NC(=O)CCC2CCCCC2)n1)c1ccccc1 [Example 41] | 3.92 | – | –
CCn1oc(=O)nc1/C(=N\OCc1csc(NC(=O)OCCc2ccccc2)n1)c1ccccc1 [Example 37] | 3.55 | – | –
COc1ccc(OC(=O)Nc2nc(CO/N=C(/c3ccccc3)c3nc(=O)on3C)cs2)cc1 [Example 97] | 2.94 | – | –
COc1cccc(C(=O)Nc2nc(CON=C(c3ccccc3)c3nc(=O)on3C)cs2)c1 [Example 71] | 2.98 | – | –
CCCCOC(=O)Nc1nc(CO/N=C(/c2ccccc2)c2nc(=O)on2C)cs1 [Example 59] | 3.13 | – | –
COc1ccc(CC(=O)Nc2nc(CON=C(c3ccccc3)c3nc(=O)on3C)cs2)cc1 [Example 70] | 2.80 | – | –
CC#CCOC(=O)Nc1nc(CO/N=C(/c2ccccc2)c2nc(=O)on2C)cs1 [Example 47] | 2.66 | – | –
CCCCCOC(=O)Nc1nc(CON=C(c2ccccc2)c2nc(=O)on2C)cs1 [Example 69] | 3.51 | – | –
CCN(O)C(=N)/C(=N\OCc1csc(NC(=O)COc2ccccc2)n1)c1ccccc1 [Example V-1] | 2.42 | – | –
COc1cccc(C(=NOCc2csc(NC(=O)COc3ccccc3)n2)c2nc(=O)on2C)c1 [Example 84] | 3.02 | – | –
Cn1oc(=O)nc1C(=NOCc1csc(NC(=O)Cc2ccccc2)n1)c1ccccc1 [Example 65] | 2.82 | – | –

SMILES | LogP [1] | Eff. % (Phytophthora infestans) [%] | Eff. % (Plasmopara viticola) [%]
Cn1oc(=O)nc1C(=NOCc1csc(NC(=O)Oc2ccc(F)cc2)n1)c1ccccc1 [Example 5] | 3.02 | – | –
Cn1oc(=O)nc1/C(=N\OCc1csc(NC(=O)OCCC2CCCCC2)n1)c1ccccc1 [Example 45] | 4.21 | – | –
Cn1oc(=O)nc1C(=NOCc1csc(NC(=O)C2(C)CCCCC2)n1)c1ccccc1 [Example 74] | 3.58 | – | –
Cn1oc(=O)nc1/C(=N\OCc1csc(NC(=O)OC(C)(C)C(Cl)(Cl)Cl)n1)c1ccccc1 [Example 51] | 3.96 | – | –
Cn1oc(=O)nc1C(=NOCc1csc(NC(=O)OCC#Cc2ccccc2)n1)c1ccccc1 [Example 73] | 3.44 | – | –
Cn1oc(=O)nc1C(=NOCc1csc(NC(=O)OCC2CCCCC2)n1)c1ccccc1 [Example 63] | 3.92 | – | –
C#CCCCC(=O)Nc1nc(CO/N=C(/c2ccccc2)c2nc(=O)on2C)cs1 [Example 40] | 2.54 | – | –
Cn1oc(=O)nc1/C(=N\OCc1csc(NC(=O)CC2CCCC2)n1)c1ccccc1 [Example 53] | 3.19 | – | –
Cn1oc(=O)nc1C(=NOCc1csc(NC(=O)OCCCC2CCCCC2)n1)c1ccccc1 [Example 83] | 4.71 | – | –
CC#CCC(C)OC(=O)Nc1nc(CON=C(c2ccccc2)c2nc(=O)on2C)cs1 (centres unmarked) [Example 81] | 3.06 | – | –
CC(C(=O)Nc1nc(CO/N=C(/c2ccccc2)c2nc(=O)on2C)cs1)c1ccccc1 (racemic) [Example 49] | 3.15 | – | –
CC(OC(=O)Nc1nc(CON=C(c2ccccc2)c2nc(=O)on2C)cs1)C(C)(C)C (centres unmarked) [Example 92] | 3.65 | – | –
CC#CCCOC(=O)Nc1nc(CO/N=C(/c2ccccc2)c2nc(=O)on2C)cs1 [Example 54] | 2.80 | – | –
Cn1oc(=O)nc1/C(=N\OCc1csc(NC(=O)CCC2CCCC2)n1)c1ccccc1 [Example 43] | 3.58 | – | –
Cn1oc(=O)nc1C(=NOCc1csc(NC(=O)c2ccc(F)cc2)n1)c1ccccc1 [Example 91] | 3.00 | – | –
CC(C)CC(=O)Nc1nc(CO/N=C(/c2ccccc2)c2nc(=O)on2C)cs1 [Example 62] | 2.75 | – | –
COc1cccc(/C(=N/OCc2csc(NC(=O)C(C)(C)Oc3ccccc3)n2)c2nc(=O)on2C)c1 [Example 36] | 3.63 | – | –
CCC(C)(C)C(=O)Nc1nc(CON=C(c2ccccc2)c2nc(=O)on2C)cs1 [Example 87] | 3.13 | – | –
C=C(C)COC(=O)Nc1nc(CO/N=C(/c2ccccc2)c2nc(=O)on2C)cs1 [Example 94] | 2.92 | – | –
CC(C)[C@@H]1CC[C@@H](C)C[C@H]1OC(=O)Nc1nc(CO/N=C(/c2ccccc2)c2nc(=O)on2C)cs1 [Example 50] | 4.91 | – | –
Cn1oc(=O)nc1C(=NOCc1csc(NC(=O)c2csc3ccccc23)n1)c1ccccc1 [Example 89] | 3.57 | – | –
Cn1oc(=O)nc1/C(=N\OCc1csc(NC(=O)OCCCCl)n1)c1ccccc1 [Example 93] | 2.80 | – | –
Cn1oc(=O)nc1C(=NOCc1csc(NC(=O)OCCC2CC2)n1)c1ccccc1 [Example 78] | 3.15 | – | –
CCCCC(CC)COC(=O)Nc1nc(CON=C(c2ccccc2)c2nc(=O)on2C)cs1 (centres unmarked) [Example 7] | 4.56 | 85 | –

SMILES | LogP [1] | Eff. % (Phytophthora infestans) [%] | Eff. % (Plasmopara viticola) [%]
Cn1oc(=O)nc1C(=NOCc1csc(NC(=O)OCCCC2CCCC2)n1)c1ccccc1 [Example 66] | 4.36 | – | –
CCCCC(C)C(=O)Nc1nc(CO/N=C(/c2ccccc2)c2nc(=O)on2C)cs1 (racemic) [Example 42] | 3.42 | – | –
COc1cccc(C(=NOCc2csc(NC(=O)CC3CCCC3)n2)c2nc(=O)on2C)c1 [Example 86] | 3.25 | – | –
Cn1oc(=O)nc1C(=NOCc1csc(NC(=O)OC2CC3CCC2C3)n1)c1ccccc1 (centres unmarked) [Example 6] | 3.60 | 90 | –
CCn1oc(=O)nc1/C(=N\OCc1csc(NC(=O)COc2ccccc2)n1)c1ccccc1 [Example 38] | 3.17 | – | –
C=CCCCCOC(=O)Nc1nc(CON=C(c2ccccc2)c2nc(=O)on2C)cs1 [Example 64] | 3.51 | – | –
CC=CCCCOC(=O)Nc1nc(CON=C(c2ccccc2)c2nc(=O)on2C)cs1 [Example 77] | 3.55 | – | –
Cn1oc(=O)nc1/C(=N\OCc1csc(NC(=O)CCc2ccccc2)n1)c1ccccc1 [Example 57] | 3.09 | – | –
CC(CC1CC1)OC(=O)Nc1nc(CON=C(c2ccccc2)c2nc(=O)on2C)cs1 (centres unmarked) [Example 80] | 3.42 | – | –
Cn1oc(=O)nc1/C(=N\OCc1csc(NC(=O)OCC(C)(C)C)n1)c1ccccc1 [Example 61] | 3.39 | – | –
Cn1oc(=O)nc1C(=NOCc1csc(NC(=O)Cc2cccs2)n1)c1ccccc1 [Example 75] | 2.71 | – | –
CC(OC(=O)Nc1nc(CO/N=C(/c2ccccc2)c2nc(=O)on2C)cs1)C1CCCC1 (centres unmarked) [Example 95] | 3.85 | – | –
Cn1oc(=O)nc1C(=NOCc1csc(NC(=O)OCCCCC(F)(F)F)n1)c1ccccc1 [Example 82] | 3.27 | – | –
Cn1oc(=O)nc1C(=NOCc1csc(NC(=O)C(C)(C)C)n1)c1ccccc1 [Example 3] | 2.84 | 84 | –
COCCn1oc(=O)nc1/C(=N\OCc1csc(NC(=O)OCCc2ccccc2)n1)c1ccccc1 [Example 39] | 3.55 | – | –
Cc1ccc(C(=O)Nc2nc(CO/N=C(/c3ccccc3)c3nc(=O)on3C)cs2)cc1 [Example 48] | 3.17 | – | –
Cn1oc(=O)nc1C(=NOCc1csc(NC(=O)c2ccccc2)n1)c1ccccc1 [Example 15] | 2.88 | 92 | –
C=CCC(C)OC(=O)Nc1nc(CON=C(c2ccccc2)c2nc(=O)on2C)cs1 (centres unmarked) [Example 76] | 3.15 | – | –
Cn1oc(=O)nc1C(=NOCc1csc(NC(=O)C2CCCCC2)n1)c1ccccc1 [Example 90] | 3.19 | – | –
C#CCOC(=O)Nc1nc(CON=C(c2ccccc2)c2nc(=O)on2C)cs1 [Example 67] | 2.49 | – | –
CCCCC(=O)Nc1nc(CO/N=C(/c2ccccc2)c2nc(=O)on2C)cs1 [Example 60] | 2.80 | – | –
Cn1oc(=O)nc1/C(=N\OCc1csc(NC(=O)C2CCCC2)n1)c1ccccc1 [Example 58] | 2.88 | – | –
CCC#CCOC(=O)Nc1nc(CON=C(c2ccccc2)c2nc(=O)on2C)cs1 [Example 72] | 2.98 | – | –
